Experimental data taken from patent US20220220041A1, “USE OF UREA AS AN ANTIMICROBIAL ADDITIVE IN AN AQUEOUS SUSPENSION” (Omya International AG, priority 2019, published 2022).

Legend:
Pseudomonas putida [1] = experiment: Example 2 preservation efficacy: H60 slurry with 61 wt.-% urea solution, P. putida inoculum, TVC; type: cell-based; conditions: 30° C.
Method: (§1) All quoted bacterial counts (Total viable counts (TVC) values), unless otherwise indicated, are given in cfu/ml and determined after at least 2 days following plate-out and incubation at 30° C. and in accordance with the counting method described in “Bestimmung von aerobe mesophilen Keimen”, Schweizerisches Lebensmittelbuch, chapter 56, section 7.01, edition of 1985, revised version of 1988.
(§2) Unless otherwise stated, per tryptic soy agar plate (TSA, prepared using BD 236950) 0.1 ml of a solution or suspension is plated. Counts from 10000 cfu/ml to 99999 cfu/ml are reported as >1E4 cfu/ml. Counts from 100000 cfu/ml to 999999 cfu/ml are reported as >1E5 cfu/ml. Counts above 1000000 cfu/ml are reported as >1E6 cfu/ml.
(§3) For the preparation of inoculum with a single bacterial species (for example Escherichia coli (DSMZ 46295) or Pseudomonas putida), bacteria are spread onto Tryptic soy broth agar (BD, 236950) by dilution streaking followed by incubation at 30° C. for at least 24 h until colonies appear. Overnight cultures are generated by inoculation of 3 ml Tryptic soy broth (Fluka 22092) with a single colony followed incubation with agitation at […] at 30° C. for 24 h.
(§4) 50 g sterile slurry H60 with a solid content of 76.5 wt.-%, based on the total weight of the H60 slurry is supplemented with different amounts of 61 wt.-% urea solution or water. The samples are then inoculated with 1 ml non-sterile calcium carbonate slurry (H60), 1 ml non-sterile calcium carbonate slurry (H90), 0.02 ml overnight culture of Escherichia coli (DSMZ 46295) and 0.02 ml overnight culture of Pseudomonas putida. The control samples are not inoculated. Samples are incubated at 30° C. and the TVC and pH are determined at various time points (0 day, 1 day, 4, days, 8 days, 9 days and/or 13 days).

[2] = system: non-sterile calcium carbonate slurry (H60), environmental bacteria; experiment: Example 2 preservation efficacy: H60 slurry with 61 wt.-% urea solution, non-sterile H60 inoculum, TVC; type: cell-based; conditions: 30° C.
Method: as §1, §2
Non-sterile slurries (H60 or H90) contain contamination with environmental bacteria at a TVC>100000 cfu/ml. The contamination originates spontaneously and a bacterial burden of at least>100000 cfu/ml is confirmed prior use as inoculum by TVC. The following bacterial species are known to occur, as identified by 16S RNA sequencing or MALDI-TOF-MS analysis: Rhizobium radiobacter, Brevundimonas intermedia, Brevundimonas diminiuta, Sphingomonas sp., Pseudomonas stutzeri, Pseudomonas sp., Comomonas aquatic.
as §4

[3] = system: natural resident bacteria of industrial grade urea, not inoculated; experiment: Example 3 preservation efficacy: H60 slurry with industrial grade urea solution, not inoculated, TVC; type: cell-based; conditions: industrial grade urea 5.5%, calcium carbonate 69%, water 25.5% w/w, inoculum none, 30° C.
Method: as §1, §2
(§5) 50 g sterile calcium carbonate slurry (H60) with a solid content of 77.3 wt.-%, based on the total weight of the H60 slurry is supplemented with industrial grade 50% (w/w) urea solution (Yara Canda Inc.) or water to different final concentrations. The industrial grade contained natural resident (i.e. bacteria in a non-growing state) bacteria. The bacterial of the industrial urea burden is 5 cfu/3 ml as determined by TVC. The species are identified by characterizing the grown colonies from the TVC by 16 S RNA sequencing, known to the person skilled in the art.
The species identified are Sporosarcina koreensis, (Gram positive, urease positive, spore forming), Paenibacillus sp., (Gram positive, urease positive, spore forming) and Halobacillus trueperi (Gram positive, urease negative, spore forming).
(§6) The samples are further artificially inoculated with 1 ml non-sterile calcium carbonate slurry (H60), 1 ml non-sterile calcium carbonate slurry (H90), 0.02 ml overnight culture of Escherichia coli (DSMZ 46295) and 0.02 ml overnight culture Pseudomonas putida. The control sample are not inoculated. […]

[4] = system: Escherichia coli (DSMZ 46295); experiment: Example 3 preservation efficacy: H60 slurry with industrial grade urea solution, E. coli inoculum, TVC; type: cell-based; conditions: industrial grade urea 5.5%, calcium carbonate 69%, water 25.5% w/w, 30° C.
Method: as §1, §2, §3, §5, §6

Pseudomonas putida [5] = experiment: Example 3 preservation efficacy: H60 slurry with industrial grade urea solution, P. putida inoculum, TVC; type: cell-based; conditions: industrial grade urea 5.5%, calcium carbonate 69%, water 25.5% w/w, 30° C.
Method: as §1, §2, §3, §5, §6

[6] = Example 5: addition of dry urea to H60 slurry, viscosity and stability of the product; type: physicochemical; conditions: 2.68 wt.-% urea and 73 wt.-% calcium carbonate
Method: The Brookfield viscosity is measured by a Brookfield DV-III Ultra viscometer at 20° C.±3° C. at 100 rpm using an LV-3 spindle and is specified in mPa·s. Once the spindle has been inserted into the sample, the measurement is started with a constant rotating speed of 100 rpm.
1 kg calcium carbonate slurry (H60) with a solid content of 75 wt.-%, based on the total weight of the H60 slurry is stirred at approximately 500 rotations per minute (rpm) and 27.5 g dry urea is added slowly during agitation, leading to 2.68 wt.-% urea and 73 wt.-% calcium carbonate, based on the total weight of the obtained slurry. The blend is further mixed for 30 minutes at slow speed (<500 rpm).

rats = conditions: cited from earlier work
[7] = Table 2, urea 2.75%, calcium carbonate 73.1%, water 24.15% w/w
[8] = Table 2, urea 7.6%, calcium carbonate 67.1%, water 25.3% w/w
[9] = Table 3, urea 0.65%, calcium carbonate 75.7%, water 23.65% w/w
[10] = Table 3, urea 2.75%, calcium carbonate 73.1%, water 24.15% w/w

SMILES: NC(N)=O [urea]
- TVC cfu/ml Day 1 (Pseudomonas putida [1]; [7]): <100 cfu/ml
- TVC cfu/ml Day 4 (Pseudomonas putida [1]; [7]): <100 cfu/ml
- TVC cfu/ml Day 8 (Pseudomonas putida [1]; [7]): 100 cfu/ml
- TVC cfu/ml Day 13 (Pseudomonas putida [1]; [7]): <100 cfu/ml
- TVC cfu/ml Day 1 (Pseudomonas putida [1]; [8]): <100 cfu/ml
- TVC cfu/ml Day 4 (Pseudomonas putida [1]; [8]): <100 cfu/ml
- TVC cfu/ml Day 8 (Pseudomonas putida [1]; [8]): <100 cfu/ml
- TVC cfu/ml Day 13 (Pseudomonas putida [1]; [8]): <100 cfu/ml
- TVC cfu/ml Day 1 (Pseudomonas putida [1]; [9]): >1E5 cfu/ml
- TVC cfu/ml Day 4 (Pseudomonas putida [1]; [9]): >1E5 cfu/ml
- TVC cfu/ml Day 1 (Pseudomonas putida [1]; [10]): <100 cfu/ml
- TVC cfu/ml Day 4 (Pseudomonas putida [1]; [10]): <100 cfu/ml
- TVC cfu/ml Day 9 (Pseudomonas putida [1]; [10]): <100 cfu/ml
- TVC cfu/ml Day 4 [2, 7]: <100 cfu/ml
- TVC cfu/ml Day 8 [2, 7]: <100 cfu/ml
- TVC cfu/ml Day 13 [2, 7]: <100 cfu/ml
- TVC cfu/ml Day 1 [2, 8]: <100 cfu/ml
- TVC cfu/ml Day 4 [2, 8]: <100 cfu/ml
- TVC cfu/ml Day 8 [2, 8]: <100 cfu/ml
- TVC cfu/ml Day 13 [2, 8]: <100 cfu/ml
- TVC cfu/ml Day 1 [2, 9]: >1E5 cfu/ml
- TVC cfu/ml Day 4 [2, 9]: >1E5 cfu/ml
- TVC cfu/ml Day 4 [2, 10]: 100 cfu/ml
- TVC cfu/ml Day 9 [2, 10]: <100 cfu/ml
- TVC cfu/ml Day 4 [3]: <100 cfu/ml
- TVC cfu/ml Day 8 [3]: 100 cfu/ml
- TVC cfu/ml Day 11 [3]: <100 cfu/ml
- TVC cfu/ml Day 13 [3]: <100 cfu/ml
- TVC cfu/ml Day 1 ([3]; detection limit 100 cfu/ml): <100 cfu/ml
- TVC cfu/ml Day 1 [4]: <100 cfu/ml
- TVC cfu/ml Day 4 [4]: <100 cfu/ml
- TVC cfu/ml Day 8 [4]: <100 cfu/ml
- TVC cfu/ml Day 11 [4]: <100 cfu/ml
- TVC cfu/ml Day 13 [4]: <100 cfu/ml
- TVC cfu/ml Day 1 (Pseudomonas putida [5]): <100 cfu/ml
- TVC cfu/ml Day 4 (Pseudomonas putida [5]): <100 cfu/ml
- TVC cfu/ml Day 8 (Pseudomonas putida [5]): <100 cfu/ml
- TVC cfu/ml Day 11 (Pseudomonas putida [5]): <100 cfu/ml
- TVC cfu/ml Day 13 (Pseudomonas putida [5]): <100 cfu/ml
- formation of clumps after addition of dry urea [6]: No clumps were formed
- viscosity after addition of dry urea [6]: does not increase
- stability of the product ([6]; 7 days at room temperature and 40° C.): remains stable
- LD50 (rats): 15000 mg/kg
